pKi: −log10 of the molar value. Read-outs that look alike come from different tables or passages of the source. Starred links: 1 amine or outer side, 2 acyl side, 3 side chain; linkers in the order of their positions; H or OH if unused. Residues, ends and D or L forms follow the SMILES beside them. *: point of attachment. Glutaryl = O=C(CCCC(=O)[*:2])[*:1]; NHPhenethyl = c1ccc(CCN*)cc1; Suc = O=C(CCC(=O)[*:2])[*:1]; NHPr = CCCN*
Experiments:
[1] = target: swine's pancreatic elastase (E3) (Sus scrofa, UniProt P00772); assay: Inhibition constants (Ki) with pancreatic elastase and chromogenic p-nitroanilide substrates; format: biochemical
Text: (§1) The earlier work also led to the surprising discovery that the carboxy group in the N-terminal part of the inhibitor as compared with the hydrophobic residue, such as an acetyl, substantially enhances inhibition capacity in the same manner as it enhances the constants of elastolytic hydrolysis of substrates of this type. It is further known that the properties of an elastolytic inhibitor are dependent upon the length of the peptide chain as well as at the substrate (eur. J. Biochem. 69, 1, 1976), higher inhibition capacity being present with a tripeptide than with a dipeptide. Experiments with vitro inhibition constants (Ki) for the alkylamides of 3-carboxypropionyl and 4-carboxybutyryl di and tripeptides were determined using pancreatic elastase and chromogenic substrates of p-nitroanilides of succinyl or glutaryl tetraalanines, the results of which are set forth in Table 1, below. Inhibition constant of the inhibitors described herein were also determined using human elastase, that is, human duodenal elastase after stimulation with cholecystokinine (E1) or lyophilized human pancreated fluid obtained by cannulation of the pancreatic duct outlet (E2), and they were then compared with swine's pancreatic elastase (E3), the results of which are set forth in Table 2, below.

[2] = target: human duodenal elastase after stimulation with cholecystokinine (E1); assay: Inhibition constants (Ki) with human duodenal elastase and chromogenic substrates; format: biochemical
Text: as §1

[3] = target: lyophilized human pancreated fluid obtained by cannulation of the pancreatic duct outlet (E2); assay: Inhibition constants (Ki) with human pancreatic fluid elastase and chromogenic substrates; format: biochemical
Text: as §1

[4] = Experimental pancreatitis in rats induced by sodium desoxycholate, serum amylase; format: in vivo; conditions: simultaneous application of 20 mg intraperitoneally
[5] = Table 1, pancreatic elastase, substrate Glt-(Ala)4-NAn, read-out: Ki, substrate Glt-(Ala)4-NAn
[6] = Table 1, pancreatic elastase, substrate Suc-(Ala)4-NAn, read-out: Ki, substrate Suc-(Ala)4-NAn
[7] = Table 2, substrate Glt-(Ala)4-NAn, read-out: Ki, Glt-(Ala)4-NAn, E1
[8] = Table 2, substrate Suc-(Ala)4-NAn, read-out: Ki, Suc-(Ala)4-NAn, E1
[9] = Table 2, substrate Glt-(Ala)4-NAn, read-out: Ki, Glt-(Ala)4-NAn, E2
[10] = Table 2, substrate Suc-(Ala)4-NAn, read-out: Ki, Suc-(Ala)4-NAn, E2

Chain of swine's pancreatic elastase (E3) (P00772 27-266): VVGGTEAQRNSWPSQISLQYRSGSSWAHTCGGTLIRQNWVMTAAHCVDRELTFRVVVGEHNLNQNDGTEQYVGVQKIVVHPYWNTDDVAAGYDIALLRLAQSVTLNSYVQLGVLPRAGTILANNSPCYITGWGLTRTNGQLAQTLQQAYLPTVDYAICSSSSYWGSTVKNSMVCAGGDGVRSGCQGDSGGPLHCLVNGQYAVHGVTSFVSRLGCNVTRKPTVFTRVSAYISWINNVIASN

Row | Compound | pKi [1, 5] | pKi [1, 6] | pKi [2, 7] | pKi [2, 8] | pKi [3, 9] | pKi [3, 10] | level of serum amylase [4] | pKi ([1]; Table 2, swine's pancreatic elastase (E3), substrate Glt-(Ala)4-NAn, read-out: Ki, Glt-(Ala)4-NAn, E3) | pKi ([1]; Table 2, swine's pancreatic elastase (E3), substrate Suc-(Ala)4-NAn, read-out: Ki, Suc-(Ala)4-NAn, E3)
1 | CCNC(=O)[C@H](C)NC(=O)[C@H](C)NC(=O)[C@H](C)NC(C)=O [Ac--(Ala)3 --NH--Et, reference compound] | 4.34 | 4.55 | 3.91 | 3.62 | 3.93 | 4.16 |  |  | 
2 | CCNC(=O)[C@H](C)NC(=O)[C@H](C)NC(=O)CCCC(=O)O [Glt--(Ala)2 --NH--Et] (Glutaryl-Ala-Ala-NHEt) | 3.96 | 4.17 |  |  |  |  |  |  | 
3 | CCNC(=O)[C@H](C)NC(=O)[C@H](C)NC(=O)[C@H](C)NC(=O)CCCC(=O)O [Glt--(Ala)3 --NH--Et, 4-Carboxybutyrylalanyl-alanyl Alanine Ethylamide] | 5.08 | 5.06 | 4.72 | 4.82 | 4.72 | 5.13 | lower level of serum amylase |  | 
4 | CNC(=O)[C@H](C)NC(=O)[C@H](C)NC(=O)[C@H](C)NC(=O)CCCC(=O)O [Glt--(Ala)3 --NH--Me] | 3.49 | 3.55 |  |  |  |  |  |  | 
5 | CCCNC(=O)[C@H](C)NC(=O)[C@H](C)NC(=O)[C@H](C)NC(=O)CCCC(=O)O [Glt--(Ala)3 --NH--Pr, 4-Carboxybutyrylalanyl-alanyl Alanine Propylamide] | 5.60 | 5.60 | 5.14 | 4.96 | 5.35 | 5.42 |  |  | 
6 | CC(C)CNC(=O)[C@H](C)NC(=O)[C@H](C)NC(=O)[C@H](C)NC(=O)CCCC(=O)O [Glt--(Ala)3 --NH--iBu, 4-Carboxybutyrylalanyl-alanyl Alanine Isobutylamide] | 3.10 | 3.18 |  |  |  |  |  |  | 
7 | CCNC(=O)[C@@H]1CCCN1C(=O)[C@H](C)NC(=O)[C@H](C)NC(=O)CCCC(=O)O [Glt--Ala--Ala--Pro--NH--Et, 4-Carboxybutyrylalanyl-alanyl Proline Ethylamide] (Glutaryl-Ala-Ala-Pro-NHEt) | 5.57 | 5.80 | 4.92 | 5.00 | 4.86 | 5.54 | lower level of serum amylase |  | 
8 | CCCNC(=O)[C@@H]1CCCN1C(=O)[C@H](C)NC(=O)[C@H](C)NC(=O)CCCC(=O)O [Glt-Ala-Ala-Pro-Nh-Pr, 4-Carboxybutyrylalanyl-alanyl Proline Propylamide] (Glutaryl-Ala-Ala-Pro-NHPr) |  |  |  |  |  |  | lower level of serum amylase |  | 
9 | CCNC(=O)[C@H](C)NC(=O)[C@H](C)NC(=O)[C@H](C)NC(=O)C=CC(=O)O [Mal--(Ala)3 --NH--Et, 3-Carboxyacryolylalanyl-alanyl Alanine Ethylamide] | 4.52 | 4.46 | 4.14 | 4.06 | 3.93 | 4.16 |  | 4.52 | 
10 | C[C@H](NC(=O)CCC(=O)O)C(=O)N[C@@H](C)C(=O)NCCc1ccccc1 [Suc--(Ala)2 --NH--EtPh, 3-Carboxypropionylalanyl Alanine Phenylethylamide] (Suc-Ala-Ala-NHPhenethyl) | 3.18 | 2.84 |  |  |  |  |  |  | 
11 | CCNC(=O)[C@H](C)NC(=O)[C@H](C)NC(=O)[C@H](C)NC(=O)CCC(=O)O [Suc--(Ala)3 --NH--Et, 3-Carboxypropionylalanyl-alanyl Alanine Ethylamide] | 4.54 | 4.70 | 4.05 | 4.12 | 4.33 | 4.54 |  |  | 4.70
12 | CNC(=O)[C@H](C)NC(=O)[C@H](C)NC(=O)[C@H](C)NC(=O)CCC(=O)O [Suc--(Ala)3 --NH--Me] | 3.17 | 3.29 |  |  |  |  |  |  | 
13 | CCCNC(=O)[C@H](C)NC(=O)[C@H](C)NC(=O)[C@H](C)NC(=O)CCC(=O)O [Suc--(Ala)3 --NH--Pr, 3-Carboxypropionylalanyl-alanyl Alanine Propylamide] | 5.35 | 5.17 | 4.68 | 4.92 | 4.85 | 4.89 |  |  | 
14 | CC(C)CNC(=O)[C@H](C)NC(=O)[C@H](C)NC(=O)[C@H](C)NC(=O)CCC(=O)O [Suc--(Ala)3 --NH--iBu, 3-Carboxypropionylalanyl-alanyl Alanine Isobutylamide] | 2.83 | 3.09 |  |  |  |  |  |  | 
15 | CCNC(=O)[C@H](C)NC(=O)[C@H](C)NC(=O)CCC(=O)O [Suc--(ala)2 --NH--Et] (Suc-Ala-Ala-NHEt) | 3.78 | 4.02 |  |  |  |  |  |  | 
16 | CCNC(=O)[C@@H]1CCCN1C(=O)[C@H](C)NC(=O)[C@H](C)NC(=O)CCC(=O)O [Suc--Ala--Ala--Pro--NH--Et, 3-Carboxypropionylalanyl-alanyl Proline Ethylamide] (Suc-Ala-Ala-Pro-NHEt) | 5.33 | 5.60 | 4.72 | 4.85 | 4.77 | 4.64 |  |  | 
17 | CCNC(=O)[C@@H]1CCCN1C(=O)[C@H](C)NC(=O)CCC(=O)O [Suc--Ala--Pro--NH--Et, 3-Carboxypropionylalanyl Proline Ethylamide] (Suc-Ala-Pro-NHEt) | 4.10 | 3.95 |  |  |  |  |  |  | 
18 | CC(C)CNC(=O)[C@@H]1CCCN1C(=O)[C@H](C)NC(=O)CCC(=O)O [Suc--Ala--Pro--NH--iBu] | 2.24 | 2.69 |  |  |  |  |  |  | 

Reference: US4554100A, “Alkylamides of carboxyalkanoyl peptides and method for preparation thereof” (Spofa, Spojene podniky pro zdravotnickou vyrobu, priority 1981, dated 1985)
